Results taken from ChEMBL document CHEMBL3885861, “Open TG-GATES”.

Organism: Rattus norvegicus
Test: Open TG-GATES - Regimen: Daily Repeat
Assay type: toxicity, organism-based, Sprague-Dawley
Parameters: regimen Daily Repeat, gender Male, age 6 weeks
Conditions: in vivo, po, 0 mg/kg, route gavage, dose level Control; for APTT / Bas / Eos / Fbg / Hb / Ht / Lym / MCH / MCHC / MCV / Mono / Neu / PT / Plat / RBC / Ret / WBC: tissue Blood; for KIDNEY_L / KIDNEY_R / KIDNEY_TOTAL: tissue Kidney; for LIVER: tissue Liver; for A/G / ALP / ALT / AST / BUN / CRE / Ca / Cl / DBIL / GLC / IP / K / LDH / Na / PL / RALB / TBIL / TC / TG / TP / gamma-GTP: tissue Plasma

Compound `CN(C)CCC(c1ccc(Cl)cc1)c1ccccn1` (configuration not stated) [CHLORPHENIRAMINE] has a TERMINAL_BW (72 h, time 3 day) of 224.6 g, an APTT (72 h, time 3 day) of 23.2 s and a Bas (72 h, time 3 day) of 0%. The Eos (72 h, time 3 day) was 1.2%, the Fbg (72 h, time 3 day) was 295.2 mg/dL and the Hb (72 h, time 3 day) was 13.4 g/dL. The Ht (72 h, time 3 day) was 41.7%, the Lym (72 h, time 3 day) was 77.6% and the MCH (72 h, time 3 day) was 20.6 pg. For the same compound, the MCHC (72 h, time 3 day) was 32.1%, the MCV (72 h, time 3 day) was 64.2 fL and the Mono (72 h, time 3 day) was 2.8%. The Neu (72 h, time 3 day) was 17.4%, the PT (72 h, time 3 day) was 14.5 s and the Plat (72 h, time 3 day) was 127.5 x10_4/uL. For the same compound, the RBC (72 h, time 3 day) was 650.8 x10_4/ul, the Ret (72 h, time 3 day) was 6.9% and the WBC (72 h, time 3 day) was 76.4 x10_2/uL. The KIDNEY_L (72 h, time 3 day) was 0.9 g, the KIDNEY_R (72 h, time 3 day) was 0.9 g and the KIDNEY_TOTAL (72 h, time 3 day) was 1.9 g. The LIVER (72 h, time 3 day) was 10.1 g, the A/G (72 h, time 3 day) was 0.9 and the ALP (72 h, time 3 day) was 1824 IU/L. For the same compound, the ALT (72 h, time 3 day) was 44.2 IU/L, the AST (72 h, time 3 day) was 69.4 IU/L and the BUN (72 h, time 3 day) was 14.6 mg/dL. It also gave a CRE (72 h, time 3 day) of 0.2 mg/dL, a Ca (72 h, time 3 day) of 10.5 mg/dL and a Cl (72 h, time 3 day) of 107.2 meq/L. It also gave a DBIL (72 h, time 3 day) of 0.014 mg/dL, a GLC (72 h, time 3 day) of 182.4 mg/dL and an IP (72 h, time 3 day) of 7.7 mg/dL. It also gave a K (72 h, time 3 day) of 4.5 meq/L, an LDH (72 h, time 3 day) of 109.4 IU/L and a Na (72 h, time 3 day) of 142.2 meq/L. It also gave a PL (72 h, time 3 day) of 151.6 mg/dL, an RALB (72 h, time 3 day) of 2.7 g/dL and a TBIL (72 h, time 3 day) of 0.034 mg/dL. For the same compound, the TC (72 h, time 3 day) was 79 mg/dL, the TG (72 h, time 3 day) was 87.8 mg/dL and the TP (72 h, time 3 day) was 5.8 g/dL. It also gave a gamma-GTP (72 h, time 3 day) of 1.4 IU/L, a TERMINAL_BW ([…], time 7 day) of 265.1 g and a TERMINAL_BW ([…], time 14 day) of 314.1 g. It also gave a TERMINAL_BW ([…], time 28 day) of 409.3 g, an APTT ([…], time 7 day) of 18.7 s and a Bas ([…], time 7 day) of 0%. It also gave an Eos ([…], time 7 day) of 0.8%, a Fbg ([…], time 7 day) of 323.4 mg/dL and a Hb ([…], time 7 day) of 14 g/dL. The Ht ([…], time 7 day) was 43.3%, the Lym ([…], time 7 day) was 78.6% and the MCH ([…], time 7 day) was 20.5 pg. For the same compound, the MCHC ([…], time 7 day) was 32.4%, the MCV ([…], time 7 day) was 63.3 fL and the Mono ([…], time 7 day) was 2.8%. For the same compound, the Neu ([…], time 7 day) was 16.6%, the PT ([…], time 7 day) was 13.9 s and the Plat ([…], time 7 day) was 113.9 x10_4/uL. For the same compound, the RBC ([…], time 7 day) was 684.8 x10_4/ul, the Ret ([…], time 7 day) was 5.9% and the WBC ([…], time 7 day) was 83.1 x10_2/uL. The APTT ([…], time 14 day) was 20.3 s, the Bas ([…], time 14 day) was 0.4% and the Eos ([…], time 14 day) was 1%. For the same compound, the Fbg ([…], time 14 day) was 308.2 mg/dL, the Hb ([…], time 14 day) was 14.8 g/dL and the Ht ([…], time 14 day) was 45.2%. It also gave a Lym ([…], time 14 day) of 76.8%, an MCH ([…], time 14 day) of 20.4 pg and an MCHC ([…], time 14 day) of 32.7%. The MCV ([…], time 14 day) was 62.2 fL, the Mono ([…], time 14 day) was 2.2% and the Neu ([…], time 14 day) was 18.8%. For the same compound, the PT ([…], time 14 day) was 14.5 s, the Plat ([…], time 14 day) was 111 x10_4/uL and the RBC ([…], time 14 day) was 727.2 x10_4/ul. The Ret ([…], time 14 day) was 3.8%, the WBC ([…], time 14 day) was 90.4 x10_2/uL and the APTT ([…], time 28 day) was 17.8 s. It also gave a Bas ([…], time 28 day) of 0.2%, an Eos ([…], time 28 day) of 1.2% and a Fbg ([…], time 28 day) of 280.8 mg/dL. It also gave a Hb ([…], time 28 day) of 15.4 g/dL, a Ht ([…], time 28 day) of 45.7% and a Lym ([…], time 28 day) of 76.4%. For the same compound, the MCH ([…], time 28 day) was 18.9 pg, the MCHC ([…], time 28 day) was 33.7% and the MCV ([…], time 28 day) was 56.2 fL. For the same compound, the Mono ([…], time 28 day) was 2%, the Neu ([…], time 28 day) was 19.8% and the PT ([…], time 28 day) was 14.5 s. For the same compound, the Plat ([…], time 28 day) was 115.9 x10_4/uL, the RBC ([…], time 28 day) was 813.8 x10_4/ul and the Ret ([…], time 28 day) was 2.5%. It also gave a WBC ([…], time 28 day) of 96.5 x10_2/uL, a KIDNEY_L ([…], time 7 day) of 1 g and a KIDNEY_R ([…], time 7 day) of 1 g. The KIDNEY_TOTAL ([…], time 7 day) was 2.1 g, the KIDNEY_L ([…], time 14 day) was 1.1 g and the KIDNEY_R ([…], time 14 day) was 1.1 g. The KIDNEY_TOTAL ([…], time 14 day) was 2.2 g, the KIDNEY_L ([…], time 28 day) was 1.4 g and the KIDNEY_R ([…], time 28 day) was 1.4 g. It also gave a KIDNEY_TOTAL ([…], time 28 day) of 2.8 g, an LIVER ([…], time 7 day) of 12.2 g and an LIVER ([…], time 14 day) of 12.9 g. For the same compound, the LIVER ([…], time 28 day) was 17.3 g, the A/G ([…], time 7 day) was 0.8 and the ALP ([…], time 7 day) was 1518.2 IU/L. It also gave an ALT ([…], time 7 day) of 43.2 IU/L, an AST ([…], time 7 day) of 65.8 IU/L and a BUN ([…], time 7 day) of 15.4 mg/dL. For the same compound, the CRE ([…], time 7 day) was 0.2 mg/dL, the Ca ([…], time 7 day) was 11.6 mg/dL and the Cl ([…], time 7 day) was 104.8 meq/L. The DBIL ([…], time 7 day) was 0.018 mg/dL, the GLC ([…], time 7 day) was 193.8 mg/dL and the IP ([…], time 7 day) was 8.1 mg/dL. It also gave a K ([…], time 7 day) of 4.2 meq/L, an LDH ([…], time 7 day) of 90.8 IU/L and a Na ([…], time 7 day) of 143.2 meq/L. For the same compound, the PL ([…], time 7 day) was 166.4 mg/dL, the RALB ([…], time 7 day) was 2.8 g/dL and the TBIL ([…], time 7 day) was 0.034 mg/dL. It also gave a TC ([…], time 7 day) of 86.6 mg/dL, a TG ([…], time 7 day) of 139.6 mg/dL and a TP ([…], time 7 day) of 6.1 g/dL. It also gave a gamma-GTP ([…], time 7 day) of 1 IU/L, an A/G ([…], time 14 day) of 0.8 and an ALP ([…], time 14 day) of 1632.2 IU/L. For the same compound, the ALT ([…], time 14 day) was 38.2 IU/L, the AST ([…], time 14 day) was 66.4 IU/L and the BUN ([…], time 14 day) was 15.6 mg/dL. The CRE ([…], time 14 day) was 0.2 mg/dL, the Ca ([…], time 14 day) was 10.9 mg/dL and the Cl ([…], time 14 day) was 106.4 meq/L. The DBIL ([…], time 14 day) was 0.016 mg/dL, the GLC ([…], time 14 day) was 187.2 mg/dL and the IP ([…], time 14 day) was 6.9 mg/dL. It also gave a K ([…], time 14 day) of 4.2 meq/L, an LDH ([…], time 14 day) of 77 IU/L and a Na ([…], time 14 day) of 143.4 meq/L. The PL ([…], time 14 day) was 153.4 mg/dL, the RALB ([…], time 14 day) was 2.8 g/dL and the TBIL ([…], time 14 day) was 0.038 mg/dL. It also gave a TC ([…], time 14 day) of 72.6 mg/dL, a TG ([…], time 14 day) of 126 mg/dL and a TP ([…], time 14 day) of 6.1 g/dL. For the same compound, the gamma-GTP ([…], time 14 day) was 1 IU/L, the A/G ([…], time 28 day) was 0.8 and the ALP ([…], time 28 day) was 1089.8 IU/L. The ALT ([…], time 28 day) was 37.2 IU/L, the AST ([…], time 28 day) was 60.4 IU/L and the BUN ([…], time 28 day) was 17.4 mg/dL. It also gave a CRE ([…], time 28 day) of 0.2 mg/dL, a Ca ([…], time 28 day) of 10.6 mg/dL and a Cl ([…], time 28 day) of 106.8 meq/L. It also gave a DBIL ([…], time 28 day) of 0.016 mg/dL, a GLC ([…], time 28 day) of 186.2 mg/dL and an IP ([…], time 28 day) of 6.3 mg/dL. For the same compound, the K ([…], time 28 day) was 4.2 meq/L, the LDH ([…], time 28 day) was 77.4 IU/L and the Na ([…], time 28 day) was 144.8 meq/L. For the same compound, the PL ([…], time 28 day) was 168.4 mg/dL, the RALB ([…], time 28 day) was 2.9 g/dL and the TBIL ([…], time 28 day) was 0.026 mg/dL. It also gave a TC ([…], time 28 day) of 79.6 mg/dL, a TG ([…], time 28 day) of 174 mg/dL and a TP ([…], time 28 day) of 6.4 g/dL. For the same compound, the gamma-GTP ([…], time 28 day) was 1 IU/L.
